The values that follow come from US8653096B2, “Chemokine receptor antagonists and methods of use thereof” (Millennium Pharmaceuticals, Inc., priority 2001, dated 2014).

A value given as a limit tells only on which side of the number the result lay.

A word on the IC50: it is the concentration at which inhibition is half-maximal.

In this assay the target is T1, RANTES/MIP-1α chemokine receptor (CCR1) in THP-1 cell membranes (Homo sapiens, UniProt P32246).
T1 construct: Membranes were prepared from THP-1 cells (ATCC #TIB202); host or cells: THP-1 cells (membrane preparation)
T1 sequence (P32246 1-355): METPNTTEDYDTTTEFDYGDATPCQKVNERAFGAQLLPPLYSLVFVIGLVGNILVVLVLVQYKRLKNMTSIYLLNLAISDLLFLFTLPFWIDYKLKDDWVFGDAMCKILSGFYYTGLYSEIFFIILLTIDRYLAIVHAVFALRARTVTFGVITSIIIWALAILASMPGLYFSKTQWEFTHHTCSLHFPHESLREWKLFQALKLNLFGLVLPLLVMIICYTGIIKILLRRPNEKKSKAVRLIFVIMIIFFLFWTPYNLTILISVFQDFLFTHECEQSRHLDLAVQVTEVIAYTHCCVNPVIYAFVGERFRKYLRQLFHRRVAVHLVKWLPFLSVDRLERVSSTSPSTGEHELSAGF
As to the kind of experiment: Receptor binding assay: 125I-RANTES or 125I-MIP-1α binding to THP-1 cell membranes. To be noted: inhibitor concentration required for 50% inhibition of specific binding; 125I-RANTES or 125I-MIP-1α as ligand, THP-1 cell membranes; read-out: IC50. How it is done: Membranes were prepared from THP-1 cells (ATCC #TIB202). Cells were harvested by centrifugation, washed twice with PBS (phosphate-buffered saline), and the cell pellets were frozen at −70 to −85° C. The frozen pellet was thawed in ice-cold lysis buffer consisting of 5 mM HEPES (N-2-hydroxyethylpiperazine-N′-2-ethane-sulfonic acid) pH 7.5, 2 mM EDTA (ethylenediaminetetraacetic acid), 5 μg/ml each aprotinin, leupeptin, and chymostatin (protease inhibitors), and 100 μg/ml PMSF (phenyl methane sulfonyl fluoride—also a protease inhibitor), at a concentration of 1 to 5×10^7 cells/ml. This procedure results in cell lysis. The suspension was mixed well to resuspend all of the frozen cell pellet. Nuclei and cell debris were removed by centrifugation of 400×g for 10 minutes at 4° C. The supernatant was transferred to a fresh tube and the membrane fragments were collected by centrifugation at 25,000×g for 30 minutes at 4° C. The supernatant was aspirated and the pellet was resuspended in freezing buffer consisting of 10 mM HEPES pH 7.5, 300 mM sucrose, 1 μg/ml each aprotinin, leupeptin, and chymostatin, and 10 μg/ml PMSF (approximately 0.1 ml per each 10^8 cells). All clumps were resolved using a minihomogenizer, and the total protein concentration was determined using a protein assay kit (Bio-Rad, Hercules, Calif., cat #500-0002). The membrane solution was then aliquoted and frozen at −70 to −85° C. until needed.
Binding Assays utilized the membranes described above. […] The binding reactions were performed in 60 to 100 μl of a binding buffer consisting of 10 mM HEPES pH 7.2, 1 mM CaCl2, 5 mM MgCl2, and 0.5% BSA (bovine serum albumin), for 60 min at room temperature. The binding reactions were terminated by harvesting the membranes by rapid filtration through glass fiber filters (GF/B or GF/C, Packard) which were presoaked in 0.3% polyethyleneimine. The filters were rinsed with approximately 600 μl of binding buffer containing 0.5 M NaCl, dried, and the amount of bound radioactivity was determined by scintillation counting in a Topcount beta-plate counter.
Specific binding is defined as the total binding minus the non-specific binding; non-specific binding is the amount of cpm still detected in the presence of excess unlabeled Rantes or MIP-1α.
Consider “1-(2-Chlorophenylsulfonyl)-4-[3-(5,11-Dihydro-7-methoxy[1]benzoxepino[2,3-b]pyridin-5-ylidene)propyl]piperazine [Example 190]”, for which the concentration for half-maximal inhibition (IC50) was over 10 µM.

In the case of “1-(3-Chlorophenylsulfonyl)-4-[3-(5,11-Dihydro-7-methoxy[1]benzoxepino[2,3-b]pyridin-5-ylidene)propyl]piperazine [Example 191]”, the IC50 is over 10 µM.

Take “1-(4-Chlorophenyl)-4-[3-(5,11-dihydro-7-methoxy[1]benzoxepino[2,3-b]pyridin-5-ylidene)propyl]piperazine [Example 71]”: the IC50 was under 1 µM.

With “1-(4-Chlorophenylsulfonyl)-4-[3-(5,11-Dihydro-7-methoxy[1]benzoxepino[2,3-b]pyridin-5-ylidene)propyl]piperazine [Example 192]”, the half-inhibitory concentration (IC50) was over 10 µM.

In the case of “1-Cyclohexyl-4-[3-(5,11-dihydro-7-methoxy[1]benzoxepino[2,3-b]pyridin-5-ylidene)propyl]piperazine [Example 73]”, the concentration for half-maximal inhibition (IC50) was under 10 µM.

For “1-[3-(5,11-Dihydro-7-methoxy[1]benzoxepino[2,3-b]pyridin-5-ylidene)propyl]-4-(2-furoyl)piperazine [Example 74]”, the IC50 was under 1000 µM.

Turning to “1-[3-(5,11-Dihydro-7-methoxy[1]benzoxepino[2,3-b]pyridin-5-ylidene)propyl]-4-(2-hydroxyphenyl)piperidine [Example 184]”, the IC50 was under 10 µM.

Turning to “1-[3-(5,11-Dihydro-7-methoxy[1]benzoxepino[2,3-b]pyridin-5-ylidene)propyl]-4-(2-pyridyl)piperidin-4-ol [Example 147]”, the IC50 is under 10 µM.

Take “1-[3-(5,11-Dihydro-7-methoxy[1]benzoxepino[2,3-b]pyridin-5-ylidene)propyl]-4-(2-pyrimidyl)piperazine [Example 72]”: the 50% inhibitory concentration (IC50) was under 10 µM.

Regarding “1-[3-(5,11-Dihydro-7-methoxy[1]benzoxepino[2,3-b]pyridin-5-ylidene)propyl]-4-(3-pyridyl)piperidin-4-ol [Example 148]”, the IC50 is under 10 µM.

As for “1-[3-(5,11-Dihydro-7-methoxy[1]benzoxepino[2,3-b]pyridin-5-ylidene)propyl]-4-(4-fluoro-3-methylphenyl)piperidin-4-ol [Example 143]”, the IC50 is under 1 µM.

Regarding “1-[3-(5,11-Dihydro-7-methoxy[1]benzoxepino[2,3-b]pyridin-5-ylidene)propyl]-4-(4-fluorophenyl)piperidin-4-ol [Example 77]”, the IC50 is under 1 µM.

Consider “1-[3-(5,11-Dihydro-7-methoxy[1]benzoxepino[2,3-b]pyridin-5-ylidene)propyl]-4-(4-hydroxyphenyl)piperidin-4-ol [Example 142]”, for which the IC50 was under 10 µM.

Consider “1-[3-(5,11-Dihydro-7-methoxy[1]benzoxepino[2,3-b]pyridin-5-ylidene)propyl]-4-(4-hydroxyphenyl)piperidine [Example 183]”, for which the IC50 was under 1 µM.

Turning to “1-[3-(5,11-Dihydro-7-methoxy[1]benzoxepino[2,3-b]pyridin-5-ylidene)propyl]-4-(4-methoxyphenyl)piperidin-4-ol [Example 140]”, the 50% inhibitory concentration (IC50) was over 10 µM.

Take “1-[3-(5,11-Dihydro-7-methoxy[1]benzoxepino[2,3-b]pyridin-5-ylidene)propyl]-4-(4-pyridyl)piperidin-4-ol [Example 149]”: the IC50 is under 1000 µM.

Take “1-[3-(5,11-Dihydro-7-methoxy[1]benzoxepino[2,3-b]pyridin-5-ylidene)propyl]-4-(4-trifluoromethylphenyl)piperidin-4-ol [Example 150]”: the IC50 is under 10 µM.

Consider “1-[3-(5,11-Dihydro-7-methoxy[1]benzoxepino[2,3-b]pyridin-5-ylidene)propyl]-4-phenylpiperidine [Example 64]”, for which the IC50 is under 1 µM.

Take “1-[3-(5,11-Dihydro-7-methoxy[1]benzoxepino[2,3-b]pyridin-5-ylidene)propyl]-4-piperidinopiperidine [Example 66]”: the IC50 was under 1000 µM.

Take “1-[3-(5,11-Dihydro-7-methoxy[1]benzoxepino[2,3-b]pyridin-5-ylidene)propyl]piperidin-4-ol [Example 61]”: the 50% inhibitory concentration (IC50) was under 10 µM.

Consider “1-[3-(7-(1-Carboxy-1-methylethyl)oxy-5,11-dihydro [1]benzoxepino[2,3-b]pyridin-5-ylidene)propyl]-4-(4-chlorophenyl)piperidin-4-ol [Example 139]”, for which the concentration for half-maximal inhibition (IC50) was under 1 µM.

Take “1-[3-(7-(1-Carboxy-1-methylethyl)oxy-5,11-dihydro[1]benzoxepino[2,3-b]pyridin-5-ylidene)propyl]-4-(4-chlorophenyl)piperidine [Example 159]”: the half-maximal inhibitory concentration (IC50) is under 1 µM.

As to “1-[3-(7-(1-Carboxyethyl)oxy-5,11-dihydro[1]benzoxepino[2,3-b]pyridin-5-ylidene)propyl]-4-(4-chlorophenyl)piperidin-4-ol [Example 178]”, the IC50 was under 1 µM.

As for “1-[3-(7-(2-Carbamoyl)ethyl-5,11-dihydro[1]benzoxepino[2,3-b]pyridin-5-ylidene)propyl]-4-(4-chlorophenyl)-piperidin-4-ol [Example 218]”, the IC50 was under 1 µM.

With “1-[3-(7-(2-Carboxy)ethenyl-5,11-dihydro[1]benzoxepino[2,3-b]pyridin-5-ylidene)propyl]-4-(4-chlorophenyl)piperidin-4-ol [Example 172]”, the half-inhibitory concentration (IC50) was under 1 µM.

On to “1-[3-(7-(2-Carboxy)ethyl-5,11-dihydro[1]benzoxepino[2,3-b]pyridin-5-ylidene)propyl]-4-(4-chlorophenyl)-piperidin-4-ol [Example 123]”, for which the half-inhibitory concentration (IC50) was under 1 µM.

For the substance “1-[3-(7-Bromo-5,11-dihydro[1]benzoxepino[2,3-b]pyridin-5-ylidene)propyl]-4-(4-chlorophenyl)piperidin-4-ol [Example 162]”, the IC50 was under 1 µM.

Turning to “1-[3-(7-Carbamoyl-5,11-dihydro[1]benzoxepino[2,3-b]pyridin-5-ylidene)propyl]-4-(4-chlorophenyl)piperidin-4-ol [Example 269]”, the 50% inhibitory concentration (IC50) was under 1 µM.

On to “1-[3-(7-Carbamoylmethyl-5,11-dihydro[1]benzoxepino[2,3-b]pyridin-5-ylidene)propyl]-4-(4-chlorophenyl)-piperidin-4-ol [Example 281]”, for which the half-inhibitory concentration (IC50) was under 1 µM.

For the substance “1-[3-(7-Carbamoylmethyloxy-5,11-dihydro[1]benzoxepino[2,3-b]pyridin-5-ylidene)propyl]-4-(4-chlorophenyl)piperidin-4-ol [Example 181]”, the half-maximal inhibitory concentration (IC50) was under 1 µM.

Take “1-[3-(7-Carboxy-5,11-dihydro[1]benzoxepino[2,3-b]pyridin-5-ylidene)propyl]-4-(4-chlorophenyl)piperidin-4-ol [Example 118]”: the half-maximal inhibitory concentration (IC50) was under 1 µM.

In the case of “1-[3-(7-Carboxymethyloxy-5,11-dihydro[1]benzoxepino[2,3-b]pyridin-5-ylidene)propyl]-4-(4-chlorophenyl)piperidin-4-ol [Example 133]”, the IC50 is under 1 µM.

In the case of “1-[3-(7-Chloro-5,11-dihydro[1]benzoxepino[2,3-b]pyridin-5-ylidene)propyl]-4-(4-chlorophenyl)piperidin-4-ol [Example 117]”, the concentration for half-maximal inhibition (IC50) is under 1 µM.

In the case of “1-[3-(8-Bromo-5,11-dihydro[1]benzoxepino[2,3-b]pyridin-5-ylidene)propyl]-4-(4-chlorophenyl)piperidin-4-ol [Example 54]”, the concentration for half-maximal inhibition (IC50) is under 1 µM.

Take “1-[3-(8-Bromo-5,11-dihydro[1]benzoxepino[2,3-b]pyridin-5-ylidene)propyl]-4-(4-chlorophenyl)piperidine [Example 160]”: the half-inhibitory concentration (IC50) was under 1 µM.

With “1-[3-(8-Carboxy-5,11-dihydro[1]benzoxepino[2,3-b]pyridin-5-ylidene)propyl]-4-(4-chlorophenyl)piperidine [Example 161]”, the half-inhibitory concentration (IC50) is under 10 µM.
